Test: Lymphatic transport assay in mesenteric lymph-duct cannulated rats
Type: in vivo, rat
Settings: total MPA related compound, intraduodenal infusion, anesthetised mesenteric lymph-duct cannulated rats; class symbols
Method: In order to assess the lymphatic transport of disclosed lipid prodrugs in rats, the mesenteric lymph ducts of the rats used in this study were cannulated to allow continual collection of mesenteric lymph. Lipid formulations containing the compound of interest were then administered to the animals, lymph was collected, and drug concentrations in the lymph samples were quantified.
Lipid-based formulations of the compounds of the invention or control compounds were prepared as previously described (Trevaskis, N. L. et al., Pharmaceutical Research, 2005, 22(11), 1863-1870, WO 2016/023082, and WO 2017/041139, hereby incorporated by reference.
In brief, either 1 or 2 mg of test prodrug, 40 mg oleic acid and 25 mg Tween 80 were mixed in a glass vial and incubated at 37° C. for 12-18 h to equilibrate. An aqueous phase consisting of 5.6 ml phosphate buffered saline (PBS, pH 7.4) was subsequently added to the lipid phase (MPA was dissolved in PBS for the preparation of MPA containing formulations) and the formulation emulsified by ultrasonication with a Misonix XL 2020 ultrasonic processor (Misonix, Farmingdale, NY, USA) equipped with a 3.2-mm microprobe tip running at 30% of the maximal amplitude of 240 μm and a frequency of 20 kHz for 2 min at room temperature. Doses for administering to more than one animal can be prepared in one batch by suitably increasing the quantities given above. Drug/prodrug concentrations in all formulations were verified using HPLC-MS.
Male Sprague-Dawley (SD) rats were selected for the lymphatic transport studies. Rats (typically 240-320 g) were maintained on a standard diet and fasted overnight with free access to water prior to experiments.
Anesthetized rats were placed on a heated pad at 37° C. and cannulas inserted into the duodenum (for formulation administration and rehydration), mesenteric lymph duct (for lymph collection), and carotid artery (in cases where blood collection was conducted). Post-surgery, rats were re-hydrated for 0.5 h via intraduodenal infusion of normal saline at 2.8 mL/h. The lipid formulations were infused into the duodenum at 2.8 mL/h for 2 h after which, normal saline was infused at 2.8 mL/h for the remainder of the experiment. Lymph was continuously collected for up to 8 h into pre-weighed Eppendorf tubes containing 10 μL of 1,000 IU/mL heparin. The collection tubes were changed hourly and lymph flow was measured gravimetrically. Aliquots of hourly lymph samples were stored at −20° C. prior to assay.
Drug concentration in lymph is expressed as total drug and includes free drug and drug associated with different glycerides. Lymph samples are first treated with a lipase or other appropriate conditions to liberate free active agent prior to measurement of active agent levels in the lymph. Treatment with a lipase or other hydrolysis conditions liberates free active agent from any corresponding re-esterified glycerides. Porcine pancreatic lipase is appropriate for this purpose. Alternatively, hydrolysis with 0.5 M NaOH may be used. For MPA “phenol” prodrugs (i.e. prodrugs linked to the triglyceride at the aromatic —OH group of MPA), hydrolysis was performed with 0.5 M NaOH except for the lymph samples collected from 3 rats in the group of compound I-20 (MPA-O-C12α′βMe-TG), which were hydrolyzed by porcine pancreatic lipase.
Transport of compounds into lymph during each hourly collection period was calculated from the product of the volume of lymph collected and the measured concentrations in lymph. For fluorescently-labelled compounds such as a BDP-conjugate, the concentrations of total compound may be measured by fluorescence spectroscopy without hydrolysis.
The results of the lymphatic transport assays are summarized in Table 2, below, and FIGS. 1-19. Table 2 summarizes lymphatic transport of total MPA related compound (% of administered dose) following intraduodenal infusion to anaesthetised, mesenteric lymph-duct cannulated rats. […]

Compound	Cumulative lymphatic transport % dose (Mean ± SD, or Range if n = 2)
CCCCCCCCCCCCCCCC(=O)OCC(COC(=O)CCCCCCCCCCCCCCC)OCCCCOC(=O)CC/C(C)=C/Cc1c(O)c2c(c(C)c1OC)COC2=O [I-25, (E)-2-(4-((6-(4-hydroxy-6-methoxy-7-methyl-3-oxo-1,3-dihydroisobenzofuran-5-yl)-4-methylhex-4-enoyl)oxy)butoxy)propane-1,3-diyl dipalmitate]	C (less than 1% and greater than 0.24% (<1% and >0.24%))
CCCCCCCCCCCCCCCC(=O)OCC(COC(=O)CCCCCCCCCCCCCCC)OC(=O)CC(C)CCCCCCCOC(=O)CC/C(C)=C/Cc1c(O)c2c(c(C)c1OC)COC2=O (stereo not drawn) [I-50, (E)-2-((10-((6-(4-hydroxy-6-methoxy-7-methyl-3-oxo-1,3-dihydroisobenzofuran-5-yl)-4-methylhex-4-enoyl)oxy)-3-methyldecanoyl)oxy)propane-1,3-diyl dipalmitate]	A (greater than 10% (>10%))
CCCCCCCCCCCCCCCC(=O)OCC(COC(=O)CCCCCCCCCCCCCCC)OC(=O)CC(C)CCCCCCCC(C)C(=O)Oc1ccc(COc2c(C/C=C(\C)CCC(=O)OC)c(OC)c(C)c3c2C(=O)OC3)cc1 (stereo not drawn) [I-54, (E)-12-(1,3-bis(palmitoyloxy)propan-2-yl) 1-(4-(((6-methoxy-5-(6-methoxy-3-methyl-6-oxohex-2-en-1-yl)-7-methyl-3-oxo-1,3-dihydroisobenzofuran-4-yl)oxy)methyl)phenyl) 2,10-dimethyldodecanedioate]	B (between 1% and 10% (1%-10%))
CCCCCCCCCCCCCCCC(=O)OCC(COC(=O)CCCCCCCCCCCCCCC)OC(=O)OCCCOC(=O)CC/C(C)=C/Cc1c(O)c2c(c(C)c1OC)COC2=O [I-27, (E)-2-(((3-((6-(4-hydroxy-6-methoxy-7-methyl-3-oxo-1,3-dihydroisobenzofuran-5-yl)-4-methylhex-4-enoyl)oxy)propoxy)carbonyl)oxy)propane-1,3-diyl dipalmitate]	B (between 1% and 10% (1%-10%))
CCCC(=O)OCC(COC(=O)CCC)OC(=O)CC(C)CCCCCCCCCCCCOC(=O)CC/C(C)=C/Cc1c(O)c2c(c(C)c1OC)COC2=O (stereo not drawn) [I-43]	A (greater than 10% (>10%))
CCCCCCCCCCCCCCCC(=O)OCC(COC(=O)CCCCCCCCCCCCCCC)OC(=O)CCCCCCCCCCC(=O)Oc1cc(C)cc(C)c1C(C)(C)CC(=O)Oc1c(C/C=C(\C)CCC(=O)OC)c(OC)c(C)c2c1C(=O)OC2 [I-47]	B (between 1% and 10% (1%-10%))

Other lines, results leading:

Cumulative lymphatic transport % dose (Mean ± SD, or Range if n = 2)	Compound
A (greater than 10% (>10%))	CCCCCCCCCCCCCCCC(=O)OCC(COC(=O)CCCCCCCCCCCCCCC)OC(=O)C(C)CCCCCCC(C)C(=O)Oc1c(C/C=C(\C)CCC(=O)OC)c(OC)c(C)c2c1C(=O)OC2 (stereo not drawn) [I-61]
A (greater than 10% (>10%))	CCCCCCCCCCCCCCCC(=O)OCC(COC(=O)CCCCCCCCCCCCCCC)OC(=O)CC(C)CCCCCCCC(C)C(=O)OC(C)Oc1c(C/C=C(\C)CCC(=O)OC)c(OC)c(C)c2c1C(=O)OC2 (stereo not drawn) [I-58, (E)-12-(1,3-bis(palmitoyloxy)propan-2-yl) 1-(1-((6-methoxy-5-(6-methoxy-3-methyl-6-oxohex-2-en-1-yl)-7-methyl-3-oxo-1,3-dihydroisobenzofuran-4-yl)oxy)ethyl) 2,10-dimethyldodecanedioate]
A (greater than 10% (>10%))	CCCCCCCCCCCCCCCC(=O)OCC(COC(=O)CCCCCCCCCCCCCCC)OC(=O)CCCCCCCCCCCCCC(=O)Oc1c(C/C=C(\C)CCC(=O)OC)c(OC)c(C)c2c1C(=O)OC2 [I-57, (E)-1-(1,3-bis(palmitoyloxy)propan-2-yl) 15-(6-methoxy-5-(6-methoxy-3-methyl-6-oxohex-2-en-1-yl)-7-methyl-3-oxo-1,3-dihydroisobenzofuran-4-yl) pentadecanedioate]
